Measurements taken from US7786141B2 (Vertex Pharmaceuticals Incorporated, priority 2004, dated 2010).

Legend:
[1] = molecular target: T1, M1 muscarinic receptor (Homo sapiens, UniProt P11229); test: Functional mobilization of intracellular calcium (FLIPR) in M1-CHO cells; format: cell-based; conditions: M1 receptor, calcium mobilization; for Emax: read-out: M1 Efficacy
T1 construct: expressed in transfected cells; host or cells: CHO (M1-CHO)
T1 sequence (P11229 1-460): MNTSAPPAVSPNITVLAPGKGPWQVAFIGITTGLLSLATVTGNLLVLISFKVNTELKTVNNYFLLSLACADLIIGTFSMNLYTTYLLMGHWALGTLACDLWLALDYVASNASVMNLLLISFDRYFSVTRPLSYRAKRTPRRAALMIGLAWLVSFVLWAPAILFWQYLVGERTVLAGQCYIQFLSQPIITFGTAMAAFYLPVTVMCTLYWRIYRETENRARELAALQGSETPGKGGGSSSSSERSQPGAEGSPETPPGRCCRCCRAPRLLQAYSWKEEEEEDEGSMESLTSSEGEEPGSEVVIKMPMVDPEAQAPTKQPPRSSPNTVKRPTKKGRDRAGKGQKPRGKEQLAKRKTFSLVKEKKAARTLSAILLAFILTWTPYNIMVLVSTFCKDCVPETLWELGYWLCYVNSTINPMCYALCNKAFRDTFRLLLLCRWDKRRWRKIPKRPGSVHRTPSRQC
Method in brief: (§1)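 FLIPR Ca2+ read, ex 488/em 540 nm, 60 s. Recombinant CHO lines (M1 or M4), dye-loaded Fluo-3 AM 60-90 min at 37° C, probenecid 1 mM, pH 7.4. Agonist: compound alone; inhibition: 15 min compound pre-incubation, then carbachol at EC80 for that subtype.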

[2] = molecular target: T2, M4 muscarinic receptor (Homo sapiens, UniProt P08173); test: Functional mobilization of intracellular calcium (FLIPR) in M4-CHO cells; format: cell-based; conditions: M4 receptor, calcium mobilization; for Emax: read-out: M4 Efficacy
T2 construct: expressed in transfected cells; host or cells: CHO (M4-CHO)
T2 sequence (P08173 1-479): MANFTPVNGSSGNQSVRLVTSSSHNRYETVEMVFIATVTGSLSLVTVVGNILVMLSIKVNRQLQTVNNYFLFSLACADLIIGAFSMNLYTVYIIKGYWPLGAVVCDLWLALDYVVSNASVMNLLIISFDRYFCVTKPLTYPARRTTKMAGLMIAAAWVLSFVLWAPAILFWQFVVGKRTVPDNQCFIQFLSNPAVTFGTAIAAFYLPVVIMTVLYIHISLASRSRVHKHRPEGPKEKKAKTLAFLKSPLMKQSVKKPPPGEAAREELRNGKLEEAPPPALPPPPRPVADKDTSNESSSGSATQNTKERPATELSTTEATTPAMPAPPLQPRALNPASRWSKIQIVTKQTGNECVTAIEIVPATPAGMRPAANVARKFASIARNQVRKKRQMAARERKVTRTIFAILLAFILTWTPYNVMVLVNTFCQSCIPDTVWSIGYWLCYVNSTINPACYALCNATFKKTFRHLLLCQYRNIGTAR
Method in brief: as §1

SMILES	M1 Activity [1]	Emax [1]	M4 Activity [2]	Emax [2]	M1 Efficacy [1]	M4 Efficacy [2]
CCCOC(=O)N1C2CCC1CC(N1CCC3(CC1)CN(S(C)(=O)=O)c1ccc(F)cc13)C2 (stereo not drawn) [compound 294]	xx (activity was measured to be between 0.1 μM and 1.0 μM)	> 85%	xx (activity was measured to be between 0.1 μM and 1.0 μM)	65 to 85%	–	–
CCOC(=O)N1CCC(N2CCC3(CC2)CN(C(C)=O)c2ccc(-c4ccc(C(F)(F)F)cc4)cc23)CC1 [compound 295]	xxx (activity was measured to be less than 0.1 μM)	65 to 85%	xxx (activity was measured to be less than 0.1 μM)	65 to 85%	–	–
CCOC(=O)N1C2CCC1CC(N1CCC3(CC1)CN(C(=O)NC(C)C)c1ccc(F)cc13)C2 (stereo not drawn) [compound 296]	x (activity was measured to be greater than 1.0 μM)	65 to 85%	x (activity was measured to be greater than 1.0 μM)	65 to 85%	–	–
CCCOC(=O)N1C2CCC1CC(N1CCC3(CC1)CN(C(=O)O[C@@H]1CCOC1)c1ccc(F)cc13)C2 (stereo partly drawn) [compound 297]	x (activity was measured to be greater than 1.0 μM)	–	x (activity was measured to be greater than 1.0 μM)	–	xx (efficacy was calculated to be between 85% and 65%)	xx (efficacy was calculated to be between 85% and 65%)
CCOC(=O)N1C2CCC1CC(N1CCC3(CC1)CN(C(=O)Oc1ccc(F)cc1)c1ccc(F)cc13)C2 (stereo not drawn) [compound 298]	x (activity was measured to be greater than 1.0 μM)	< 65%	x (activity was measured to be greater than 1.0 μM)	65 to 85%	–	–
Fc1ccc2c(c1)C1(CCN(C3CCOCC3)CC1)CN2 [compound 299]	x (activity was measured to be greater than 1.0 μM)	65 to 85%	x (activity was measured to be greater than 1.0 μM)	65 to 85%	–	–
Fc1ccc2c(c1)C1(CCN(C[C@H]3C[C@H]4CC[C@H]3O4)CC1)CN2 [compound 300]	xx (activity was measured to be between 0.1 μM and 1.0 μM)	65 to 85%	x (activity was measured to be greater than 1.0 μM)	< 65%	–	–
O=C(O[C@H]1CCOC1)N1C2CCC1CC(N1CCC3(CC1)C(=O)Nc1ccccc13)C2 (stereo partly drawn) [compound 301]	x (activity was measured to be greater than 1.0 μM)	< 65%	x (activity was measured to be greater than 1.0 μM)	< 65%	–	–
CCCOC(=O)N1C2CCC1CC(N1CCC3(CC1)CN(C(=O)C1CCC1)c1ccc(F)cc13)C2 (stereo not drawn) [compound 302]	x (activity was measured to be greater than 1.0 μM)	< 65%	x (activity was measured to be greater than 1.0 μM)	< 65%	–	–
CCOC(=O)N1CCC(N2CCC3(CC2)CN(CC(=O)CC)c2ccc(F)cc23)CC1 [compound 303]	xx (activity was measured to be between 0.1 μM and 1.0 μM)	> 85%	x (activity was measured to be greater than 1.0 μM)	< 65%	–	–
COCCOC(=O)N1CC2(CCN(C3CC4CCC(C3)N4C(=O)O[C@@H]3CCOC3)CC2)c2cc(F)ccc21 (stereo partly drawn) [compound 304]	xxx (activity was measured to be less than 0.1 μM)	65 to 85%	x (activity was measured to be greater than 1.0 μM)	< 65%	–	–
CC(=O)NC1CC2(CCN(CC3CC4C=CC3C4)CC2)c2ccccc21 (stereo not drawn) [compound 305]	x (activity was measured to be greater than 1.0 μM)	–	x (activity was measured to be greater than 1.0 μM)	–	x (efficacy was calculated to be less than 65%)	x (efficacy was calculated to be less than 65%)
CCCOC(=O)N1CCC(CN2CCC3(CC2)CN(C(C)=O)c2ccc(C)cc23)CC1 [compound 306]	x (activity was measured to be greater than 1.0 μM)	< 65%	x (activity was measured to be greater than 1.0 μM)	< 65%	–	–
CCOC(=O)N1CCC(CN2CCC3(CC2)CN(C(C)=O)c2c(F)cccc23)CC1 [compound 307]	xx (activity was measured to be between 0.1 μM and 1.0 μM)	65 to 85%	x (activity was measured to be greater than 1.0 μM)	< 65%	–	–
CCOC(=O)N1C2CCC1CC(N1CCC3(CC1)CN(C(=O)c1ccncc1)c1ccc(F)cc13)C2 (stereo not drawn) [compound 308]	xxx (activity was measured to be less than 0.1 μM)	> 85%	x (activity was measured to be greater than 1.0 μM)	< 65%	–	–
CCOC(=O)N1CCCC(N2CCC3(CC2)CN(C(C)=O)c2ccc(F)cc23)CC1 (stereo not drawn) [compound 309]	xx (activity was measured to be between 0.1 μM and 1.0 μM)	> 85%	x (activity was measured to be greater than 1.0 μM)	< 65%	–	–
CCOC(=O)N1C2CCC1CC(N1CCC3(CC1)CNc1ccc(F)cc13)C2 (stereo not drawn) [compound 310]	xx (activity was measured to be between 0.1 μM and 1.0 μM)	< 65%	x (activity was measured to be greater than 1.0 μM)	< 65%	–	–
COCCOC(=O)N1C2CCC1CC(N1CCC3(CC1)CN(C(=O)C1CC1)c1ccc(F)cc13)C2 (stereo not drawn) [compound 311]	xxx (activity was measured to be less than 0.1 μM)	65 to 85%	x (activity was measured to be greater than 1.0 μM)	65 to 85%	–	–
COC(=O)N1CCC(N2CCC3(CC2)CN(C(C)=O)c2ccc(C)cc23)CC1 [compound 312]	x (activity was measured to be greater than 1.0 μM)	< 65%	x (activity was measured to be greater than 1.0 μM)	< 65%	–	–
C1=C[C@H]2C[C@H]1C[C@H]2CN1CCC2(CCc3ccccc32)CC1 [compound 313]	x (activity was measured to be greater than 1.0 μM)	< 65%	x (activity was measured to be greater than 1.0 μM)	< 65%	–	–
COC(=O)N1C2CCC1CC(N1CCC3(CC1)CN(C(=O)N(C)C)c1ccc(F)cc13)C2 (stereo not drawn) [compound 314]	xx (activity was measured to be between 0.1 μM and 1.0 μM)	< 65%	x (activity was measured to be greater than 1.0 μM)	< 65%	–	–
CCOC(=O)N1CCC(C)(CN2CCC3(CC2)C[C@H](NC(C)=O)c2ccccc23)CC1 [compound 315]	x (activity was measured to be greater than 1.0 μM)	< 65%	x (activity was measured to be greater than 1.0 μM)	< 65%	–	–
C#CCOC(=O)N1CCC(CN2CCC3(CC2)CN(C(C)=O)c2ccc(F)cc23)CC1 [compound 316]	x (activity was measured to be greater than 1.0 μM)	< 65%	x (activity was measured to be greater than 1.0 μM)	< 65%	–	–
CCOC(=O)N1CCC(N2CCC3(CC2)CN(C(=O)CC)c2ccc(F)cc23)CC1 [compound 317]	x (activity was measured to be greater than 1.0 μM)	< 65%	x (activity was measured to be greater than 1.0 μM)	< 65%	–	–
CCOC(=O)N1C2CCC1CC(N1CCC3(CC1)CC(NC(C)=O)c1ccccc13)C2 (stereo not drawn) [compound 318]	xxx (activity was measured to be less than 0.1 μM)	65 to 85%	xxx (activity was measured to be less than 0.1 μM)	> 85%	–	–
CCOC(=O)N1CCC(CN2CCC3(CC2)C(=O)Nc2ccccc23)CC1 [compound 319]	xx (activity was measured to be between 0.1 μM and 1.0 μM)	< 65%	x (activity was measured to be greater than 1.0 μM)	< 65%	–	–
CC(C)OC(=O)N1C2CCC1CC(N1CCC3(CC1)COc1ccc(F)cc13)C2 (stereo not drawn) [compound 320]	xx (activity was measured to be between 0.1 μM and 1.0 μM)	65 to 85%	x (activity was measured to be greater than 1.0 μM)	< 65%	–	–
